Tests used:
[1] = test system: whole dorsal root ganglion (DRG); assay: neurite extension of whole dorsal root ganglion cultured on scaffolds; type: cell-based; settings: DRG on PLLA/PLLA scaffolds with 100 nM bolus of exogenous E2 at the beginning of culture
Experimental: To examine the bioactivity of E2 released during poly(pro-drug) material degradation and the effects of sustained E2 release on neurons, whole dorsal root ganglion (DRG) were cultured on poly(pro-drug) material films to examine the ability of the poly(pro-drug) material to promote neurite extension. To analyze material-derived neurite extension, DRG were cultured onto three types of scaffolds: 1) PLLA fibers electrospun onto a PLLA film (PLLA/PLLA), 2) PLLA fibers electrospun on to a PLLA film with a 100 nM bolus of exogenous E2 at the beginning of culture (PLLA/PLLA+Exo E2), and 3) PLLA fibers electrospun onto a poly(pro-drug) material film (PLLA/P1). […] PLLA fibers were used in this experiment to isolate the effects of E2 released the poly(pro-drug) material as the only factor influencing DRG neurite extension.

[2] = not told

| Young's modulus (Er) [2] [GPa] | Molecule | average neurite outgrowth from DRG [1] [μm] |
| --- | --- | --- |
|  | C[C@]12CC[C@@H]3c4ccc(O)cc4CC[C@H]3[C@@H]1CC[C@@H]2O [E2, 17β-Estradiol] | 526.7±273.4 |
| 5.38±1.06 | poly(L-lactic acid) [PLLA] |  |

From patent US11202834B2, “Synthesis and processing of poly(pro-drug) materials for extended drug release and uses thereof” (RENSSELAER POLYTECHNIC INSTITUTE, priority 2018, dated 2021)
